Reference: ChEMBL document CHEMBL5729772, “MYST family histone acetyltransferase inhibitors” (2023)
pIC50: −log10 of the molar value.

Key:
[1] = molecular target: Histone acetyltransferase KAT7 (Homo sapiens, UniProt O95251); experiment: (§1) KAT-7 Enzyme Assay: Enzyme assay buffer was 50 mM Tris pH 8.0, 0.002% Tween20, 0.005% bovine skin gelatin, and 1 mM dithiothreitol (DTT). For determination of IC50values, compounds were serially diluted with 2% (v/v) DMSO in the final reaction, pre-incubating each dilution of each compound with 40 μL of assay buffer containing KAT-7 enzyme (6 nM final concentration). 10 μL of assay buffer containing 1 μM peptide substrate and 2 μM acetyl coenzyme A (final concentrations) was added. Reactions (50 μL total) were then carried out at 25° C. for 120 minutes. Reactions were terminated by the addition of 0.5% formic acid (final concentration), and a sample of each reaction was analyzed by SAMDI Tech, Inc. (Chicago, Ill.) using self-assembled monolayer desorption/ionization time-of-flight mass spectrometry (Mrksich, M. (2008) Mass spectrometry of self-assembled monolayers: a new tool for molecular surface science. ACS Nano 2, 7-18).
[2] = molecular target: Histone acetyltransferase KAT5 (Homo sapiens, UniProt Q92993); experiment: as §1, with “KAT-5 Enzyme” for “KAT-7 Enzyme”, “containing KAT-5” for “containing KAT-7”, “enzyme (9” for “enzyme (6”, “and 0.5” for “and 2”, “for 90” for “for 120”
[3] = molecular target: Histone acetyltransferase KAT6A (Homo sapiens, UniProt Q92794); experiment: as §1, with “KAT-6A Enzyme” for “KAT-7 Enzyme”, “Assay: KAT-6A.” for “Assay:”, “containing KAT-6A” for “containing KAT-7”, “enzyme (12.5” for “enzyme (6”, “and 1” for “and 2”, “for 90” for “for 120”
[4] = molecular target: T1, Histone acetyltransferase KAT8 (Homo sapiens, UniProt Q9H7Z6); experiment: as §1, with “KAT-8 Enzyme” for “KAT-7 Enzyme”, “containing KAT-8” for “containing KAT-7”, “enzyme (12.5” for “enzyme (6”, “and 5” for “and 2”, “for 90” for “for 120”
T1 sequence (Q9H7Z6 whole entry): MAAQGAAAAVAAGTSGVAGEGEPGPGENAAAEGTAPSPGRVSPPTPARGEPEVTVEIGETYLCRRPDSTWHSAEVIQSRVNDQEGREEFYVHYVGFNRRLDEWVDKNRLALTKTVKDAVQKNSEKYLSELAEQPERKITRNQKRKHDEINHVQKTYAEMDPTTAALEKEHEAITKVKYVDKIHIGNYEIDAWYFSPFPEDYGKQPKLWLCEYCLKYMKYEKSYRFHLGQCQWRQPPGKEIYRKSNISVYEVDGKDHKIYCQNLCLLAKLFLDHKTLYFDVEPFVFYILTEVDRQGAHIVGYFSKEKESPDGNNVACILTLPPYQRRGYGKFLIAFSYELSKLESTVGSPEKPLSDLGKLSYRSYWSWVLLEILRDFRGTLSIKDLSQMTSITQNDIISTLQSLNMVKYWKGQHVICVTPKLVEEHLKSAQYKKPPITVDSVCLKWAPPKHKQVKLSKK

Histone acetyltransferase KAT5, sequence (Q92993 whole entry): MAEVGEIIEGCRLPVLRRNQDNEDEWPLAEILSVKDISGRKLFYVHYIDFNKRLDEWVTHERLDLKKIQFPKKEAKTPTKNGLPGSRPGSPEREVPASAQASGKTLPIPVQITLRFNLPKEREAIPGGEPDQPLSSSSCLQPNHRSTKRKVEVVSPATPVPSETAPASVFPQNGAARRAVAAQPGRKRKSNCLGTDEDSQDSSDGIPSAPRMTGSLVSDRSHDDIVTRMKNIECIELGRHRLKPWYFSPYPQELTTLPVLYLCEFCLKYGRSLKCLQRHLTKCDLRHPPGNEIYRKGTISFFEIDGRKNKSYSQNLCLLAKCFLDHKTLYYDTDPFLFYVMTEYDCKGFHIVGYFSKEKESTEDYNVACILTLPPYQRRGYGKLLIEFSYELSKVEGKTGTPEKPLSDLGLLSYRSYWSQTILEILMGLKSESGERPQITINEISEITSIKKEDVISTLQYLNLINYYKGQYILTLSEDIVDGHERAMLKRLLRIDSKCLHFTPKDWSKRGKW
Histone acetyltransferase KAT7, sequence (O95251 whole entry): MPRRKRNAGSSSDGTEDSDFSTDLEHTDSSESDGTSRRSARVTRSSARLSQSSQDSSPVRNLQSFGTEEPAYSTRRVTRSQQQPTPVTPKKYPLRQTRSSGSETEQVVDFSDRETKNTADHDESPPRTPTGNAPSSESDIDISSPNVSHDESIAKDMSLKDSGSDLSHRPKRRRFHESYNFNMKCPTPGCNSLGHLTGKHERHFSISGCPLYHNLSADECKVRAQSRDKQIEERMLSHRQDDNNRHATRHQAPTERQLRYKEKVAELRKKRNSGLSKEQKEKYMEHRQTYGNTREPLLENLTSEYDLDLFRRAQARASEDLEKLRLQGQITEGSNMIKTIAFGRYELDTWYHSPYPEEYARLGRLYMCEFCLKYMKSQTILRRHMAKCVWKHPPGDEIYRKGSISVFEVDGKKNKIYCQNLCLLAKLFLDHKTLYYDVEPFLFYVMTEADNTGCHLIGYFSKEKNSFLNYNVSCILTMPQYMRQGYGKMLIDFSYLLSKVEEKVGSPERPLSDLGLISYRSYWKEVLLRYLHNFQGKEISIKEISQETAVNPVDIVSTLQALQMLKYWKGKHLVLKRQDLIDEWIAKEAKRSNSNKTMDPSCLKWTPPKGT
Histone acetyltransferase KAT6A, sequence (Q92794 whole entry): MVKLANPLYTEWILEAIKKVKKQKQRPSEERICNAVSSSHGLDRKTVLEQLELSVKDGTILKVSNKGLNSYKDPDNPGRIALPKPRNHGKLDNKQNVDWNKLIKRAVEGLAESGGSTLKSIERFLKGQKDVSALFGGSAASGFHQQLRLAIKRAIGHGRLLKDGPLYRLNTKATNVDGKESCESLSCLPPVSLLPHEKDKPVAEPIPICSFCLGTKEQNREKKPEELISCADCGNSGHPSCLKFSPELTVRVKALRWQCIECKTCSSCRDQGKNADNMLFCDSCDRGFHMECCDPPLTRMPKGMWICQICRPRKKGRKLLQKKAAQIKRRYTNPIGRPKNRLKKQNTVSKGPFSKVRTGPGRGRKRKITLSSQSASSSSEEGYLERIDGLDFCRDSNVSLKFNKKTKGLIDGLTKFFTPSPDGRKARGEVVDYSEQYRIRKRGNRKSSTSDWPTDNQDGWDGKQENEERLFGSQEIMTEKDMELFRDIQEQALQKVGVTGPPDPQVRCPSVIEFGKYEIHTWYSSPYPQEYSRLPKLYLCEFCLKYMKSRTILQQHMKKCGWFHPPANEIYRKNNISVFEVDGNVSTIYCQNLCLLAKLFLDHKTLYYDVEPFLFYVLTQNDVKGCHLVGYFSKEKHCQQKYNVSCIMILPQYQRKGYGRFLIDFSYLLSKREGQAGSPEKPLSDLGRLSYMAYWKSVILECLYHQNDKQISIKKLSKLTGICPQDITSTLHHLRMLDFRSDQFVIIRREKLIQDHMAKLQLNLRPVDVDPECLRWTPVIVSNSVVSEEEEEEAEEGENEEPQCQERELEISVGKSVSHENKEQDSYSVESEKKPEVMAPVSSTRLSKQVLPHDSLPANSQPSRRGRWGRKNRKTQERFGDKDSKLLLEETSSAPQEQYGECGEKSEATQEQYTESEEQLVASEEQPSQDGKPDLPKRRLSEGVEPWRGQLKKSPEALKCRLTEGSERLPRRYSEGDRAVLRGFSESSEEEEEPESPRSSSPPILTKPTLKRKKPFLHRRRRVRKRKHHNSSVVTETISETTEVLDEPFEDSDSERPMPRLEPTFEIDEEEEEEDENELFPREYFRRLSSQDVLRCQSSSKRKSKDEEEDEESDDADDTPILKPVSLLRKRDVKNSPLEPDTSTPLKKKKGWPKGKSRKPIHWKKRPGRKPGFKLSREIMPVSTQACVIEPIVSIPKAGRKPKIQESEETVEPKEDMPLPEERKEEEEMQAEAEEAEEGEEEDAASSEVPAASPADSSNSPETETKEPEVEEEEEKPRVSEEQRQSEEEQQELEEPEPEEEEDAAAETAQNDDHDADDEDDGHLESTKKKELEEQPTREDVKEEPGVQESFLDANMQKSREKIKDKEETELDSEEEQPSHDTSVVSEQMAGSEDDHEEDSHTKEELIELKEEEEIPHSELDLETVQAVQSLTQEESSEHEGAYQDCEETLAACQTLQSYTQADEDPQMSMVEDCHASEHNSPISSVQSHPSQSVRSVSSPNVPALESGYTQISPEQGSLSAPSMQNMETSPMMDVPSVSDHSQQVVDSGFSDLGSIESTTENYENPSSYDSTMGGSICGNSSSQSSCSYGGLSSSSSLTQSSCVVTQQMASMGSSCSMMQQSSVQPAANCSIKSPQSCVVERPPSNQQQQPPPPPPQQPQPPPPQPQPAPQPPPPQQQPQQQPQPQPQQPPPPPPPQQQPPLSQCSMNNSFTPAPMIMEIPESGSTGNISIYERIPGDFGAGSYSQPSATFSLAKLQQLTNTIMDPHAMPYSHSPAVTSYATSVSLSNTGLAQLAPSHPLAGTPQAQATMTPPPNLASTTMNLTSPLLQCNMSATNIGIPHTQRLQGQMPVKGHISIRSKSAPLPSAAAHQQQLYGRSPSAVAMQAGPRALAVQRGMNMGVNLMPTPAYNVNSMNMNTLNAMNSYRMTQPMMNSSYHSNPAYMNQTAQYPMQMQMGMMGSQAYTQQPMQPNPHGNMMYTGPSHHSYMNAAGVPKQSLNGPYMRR

| pIC50 [1] | pIC50 [2] | pIC50 [3] | IC50 [4] | SMILES |
| --- | --- | --- | --- | --- |
| > 5.00 | > 5.00 | > 5.00 | in the range around 30 µM | COc1ccc(S(=O)(=O)NNC(=O)c2cc(-c3cn(C)cn3)cc(Cl)c2F)nc1 |
| > 5.00 | > 5.00 | > 5.00 | in the range around 30 µM | COc1ccc(S(=O)(=O)NNC(=O)c2cc(-c3cn(C)cn3)cc(Cl)c2F)c(F)c1 |
| > 5.00 | > 5.00 | > 5.00 | in the range around 30 µM | Cn1cnc(-c2cc(Cl)c(F)c(C(=O)NNS(=O)(=O)c3ccccc3F)c2)c1 |
| > 5.00 | > 5.00 | > 5.00 | in the range around 30 µM | CNc1cccc(S(=O)(=O)NNC(=O)c2cc(-c3cn(C)cn3)cc(Cl)c2F)c1 |
| > 5.00 | > 5.00 | > 5.00 | in the range around 30 µM | COc1ccc(S(=O)(=O)NNC(=O)c2cc(-c3cn(C)cn3)cc(Cl)c2F)cc1 |
